Converted amounts (≈) assume the structure as drawn.
Assays:
[1] = test system: A. baumannii ATCC 19606; assay: MIC, broth microdilution; type: cell-based, Acinetobacter baumannii; conditions: for MIC on AB: A. baumannii ATCC 19606
Procedure: (§1) Determination of Minimal Inhibitory Concentration (MIC) for Vancomycin, Teicoplanin and Tei-Analogs Versus Selected Strains
(§2) MICs were determined by the broth microdilution method. Specifically, 12 Colonies of the test strain were picked up from 18-24 hour agar cultures and freshly inoculated into broth mediums until reaching the turbidity of a 0.5 McFarland standard. The broth culture was adjusted with broth medium to approximately 1×10^8 CFUmL^−1. […] The plates were incubated in 37° C. for 18-24 hours and monitored for the wells of the positive control, where cells grew, and the wells of the negative control, where wells should not grow. The MIC value was determined for the concentration of a test compound, at which there was no visible growth in the well.

[2] = test system: A. baumannii ATCC 19606; assay: Thin-section TEM, cell wall morphology; type: cell-based, Acinetobacter baumannii; conditions: AB ATCC 19606; 24 50 μM, colistin 3.2 μM, combination 25 μM each
[3] = test system: VRE ATCC 700221 (vanA); assay: MIC, broth microdilution; type: cell-based, enterococci; conditions: VRE ATCC 700221 (vanA)
Procedure: as §1, §2

[4] = test system: VRE ATCC 700802 (vanB); assay: MIC, broth microdilution; type: cell-based, enterococci; conditions: VRE ATCC 700802 (vanB)
Procedure: as §1, §2

[5] = test system: VRE ATCC 700425 (vanC); assay: MIC, broth microdilution; type: cell-based, enterococci; conditions: VRE ATCC 700425 (vanC)
Procedure: as §1, §2

[6] = test system: MRSA ATCC 700787; assay: In vivo efficacy, intraperitoneal MRSA infection; design: species or system mice; conditions: peritoneal fluid, 24 hours post-inoculation, single dose 20 mgkg^−1 IP
Procedure: (§3) In Vivo Efficacy of r6,N-Acyl-Glc Tei Analogs
(§4) Female C57BL/6 mice (6 weeks of age; about 16-19 g, 3-5 mice per group) were intraperitoneally inoculated with 300 μL of MRSA ATCC 700787 suspension (about 10^7 CFUmL^−1). For intranasal A. baumannii (ATCC 19606) inoculation, mice were anesthetized, and inoculated intranasally with about 10^7-10^8 CFUmL^−1 A. baumannii in 50 μL of PBS. Treatments were started 1 hour after the bacterial challenge. The dose administration to mice was set as follows: teicoplanin (1) or r6,C8-Tei analog (14) 20 mgkg^−1 was intraperitoneally injected to MRSA-infected mice; amikacin (15 mgkg^−1), teicoplanin (1) (30 mgkg^−1), kanamycin (30 mgkg^−1) or r1,Me2-r6,guanidino-C8 analog (24) (30 mgkg^−1) was intraperitoneally injected to AB-infected mice. To assess bacteraemia, the test animals were sacrificed to collect 1 mL of peritoneal fluid (PF) for MRSA counting or the lungs were lavaged to collect 0.6 mL bronchoalveolar lavage (BAL) fluid for A. baumannii counting.
For MRSA, mice were inoculated intraperitoneally (IP) with 0.3 mL of MRSA ATCC 700787 suspension (about 10^7 CFUmL^−1). […] For the saline treated control, bacterial count was calculated (about 7.5 log CFUmL^−1, FIG. 4A). […]

[7] = test system: A. baumannii ATCC 19606; assay: In vivo efficacy, intranasal A. baumannii infection; design: species or system mice; conditions: BAL fluid, 24 hours post-inoculation
Procedure: as §3, §4
For AB (ATCC 19606), female C57BL/6 mice were first anesthetized by intraperitoneal injection of zoletil and then intranasally inoculated with 50 μL of bacteria in a PBS solution (about 10^7-10^8 CFUmL^−1). The treatment started 1 hour post-infection with a single dose of compound 24 (30 mgkg^−1), compound 1 (30 mgkg^−1), amikacin (15 mgkg^−1), or kanamycin (30 mgkg^−1), where saline/compound 1 and amikacin/kanamycin respectively served as negative and positive controls. To assess the density of bacteraemia, the lungs of mice were lavaged to collect 0.6 mL bronchoalveolar lavage (BAL) fluid from each mouse at 24 hours post-inoculation. For saline/compound 1 treated controls, the bacterial load was counted (about 4 log CFUmL^−1, FIG. 4B), where the bacterial load was reduced by 0.5 or 1 log CFUmL^−1 with the treatment of amikacin/kanamycin or compound 24, respectively.

[8] = test system: MRSA ATCC 700787; assay: Thin-section TEM, cell wall morphology; type: cell-based, Staphylococcus aureus
Procedure: Thin-Section Transmission Electron Microscopy (TEM)
An overnight cultured MRSA ATCC 700787, VRE ATCC 700221 or A. baumannii ATCC 19606 was individually sub-cultured into a fresh medium. Bacteria at the exponential phase were treated with a given test compound at a concentration of 4×MIC for 1-4 hour at 37° C. and followed by wash and resuspension in PBS. Bacteria cells for the TEM analysis were prepared as follows: Cells were fixed with 2.5% glutaraldehyde for 30 minutes. After the fixation, cells were washed twice with PBS and fixed with 1% osmium tetraoxide for another 30 minutes. All the buffer was removed with distilled water. The cells were then stained with 1% uranyl acetate and dehydrated with a graded ethanol solution. Cells were embedded in resin. Finally, each sample was cut into thin slices of approximately 90 nm with a glass knife and stained with uranyl acetate. The images of bacterial morphological were recorded.
The cell wall/membrane apparently is the targets, while the extent of damage depends on what compound imposes on the strain. […] Cell wall thickening has been a common phenotype in clinical MRSA isolates, which may well be a phenotypic determinant for VRSA. The systemic cell-wall damage may account for the cell-wall biosynthesis crippled all over the cell surface in cell-wall thickening strains, thus leading cells to lysis as a result of the osmotic pressure of cytoplasm.

[9] = test system: HEK293T cells; assay: Alamar Blue cell viability assay; type: cell-based, human; conditions: up to 100 μgmL^−1; 2 and 24 h
Procedure: The Alamar Blue (AB) assay, which includes a redox indicator that changes color or emits fluorescence in response to a metabolic activity, was used to assess in vitro mammalian cell cytotoxicity (human embryonic kidney cells (HEK293T)) upon an antibiotic treatment. 2×10^5 cellsmL^−1 were allowed to adhere on 96-well plates overnight at 37° C. in a humidified incubator (5% CO2 atmosphere). Tested compounds were dissolved in 50% DMSO to make 1 mgmL^−1 of a stock solution. Cells were separately aliquoted with 5 μL of a test compound (final concentration: 100 μgmL^−1) and incubated. PBS and 50% DMSO, which was used to dissolve compounds, served as a control. Cell viability was triplicated and assessed at 2 and 24 hour time points for each test compound, on which the measurements followed the manufacturer protocol.

[10] = test system: MRSA ATCC 700698 hVISA; assay: MIC, broth microdilution; type: cell-based, Staphylococcus aureus; conditions: MRSA ATCC 700698 hVISA
Procedure: as §1, §2

[11] = test system: MRSA ATCC BAA-44; assay: MIC, broth microdilution; type: cell-based, Staphylococcus aureus; conditions: MRSA ATCC BAA-44
Procedure: as §1, §2

[12] = test system: MRSA ATCC BAA-38; assay: MIC, broth microdilution; type: cell-based, Staphylococcus aureus; conditions: MRSA ATCC BAA-38
Procedure: as §1, §2

[13] = test system: MRSA ATCC 700789 VRSA; assay: MIC, broth microdilution; type: cell-based, Staphylococcus aureus; conditions: MRSA ATCC 700789 VRSA
Procedure: as §1, §2

[14] = test system: MRSA ATCC 700787 VRSA; assay: MIC, broth microdilution; type: cell-based, Staphylococcus aureus
Procedure: as §1, §2

[15] = test system: MRSA ATCC 43300; assay: MIC, broth microdilution; type: cell-based, Staphylococcus aureus; conditions: MRSA ATCC 43300
Procedure: as §1, §2

[16] = test system: S. aureus ATCC 29213; assay: MIC, broth microdilution; type: cell-based, Staphylococcus aureus; conditions: SA ATCC 29213
Procedure: as §1, §2

[17] = test system: MRSA ATCC BAA-39; assay: MIC, broth microdilution; type: cell-based, Staphylococcus aureus; conditions: MRSA ATCC BAA-39
Procedure: as §1, §2

[18] = test system: E. faecalis ATCC 29302; assay: MIC, broth microdilution; type: cell-based; conditions: EF ATCC 29302
Procedure: as §1, §2

[19] = test system: AB ATCC 19606; assay: Minimal bactericidal concentration (MBC); type: cell-based, Acinetobacter baumannii
Procedure: (§5) Minimal Bactericidal Concentration (MBC) Determination
(§6) The MBC test is an extension of the MIC examination. MBC was determined by performing subcultures on antibiotic-free agar from both the well where there was no visible growth at the MIC of a tested antibiotic and from the positive control well (with inoculum but without compounds). The plates were incubated at 37° C. for 18-24 hours. The MBC was taken as the lowest concentration of the test compound that results in more than 99.9% reduction of viable bacteria. If MBC was one or two dilutions above a given MIC value (MBC/MIC ratio was less than or equal to four), the antibiotic was considered bactericidal against the test organism.

[20] = test system: MRSA ATCC 700787; assay: Minimal bactericidal concentration (MBC); type: cell-based, Staphylococcus aureus
Procedure: as §5, §6

[21] = biological target: Dbv27 (Nonomuraea gerenzanensis, UniProt Q7WZ64); assay: ITC binding affinity; conditions: ITC versus Dbv27
Procedure: Isothermal Titration Calormetry (ITC) Analysis
A stock solution (50 mM) was prepared by dissolving r6,GlcNAc pseudoaglycone (9) in 50% DMSO. The 1 mM protein solutions of Orf2*, Orf2*T and Dbv27 were prepared in a 50 mM HEPES buffer solution at pH 8.0. The solution (50 mM HEPES, pH8.0 and 10% DMSO) that contained compound 9 (1 mM) or S-adenosylmethionine (SAM) (1 mM) in a 40 μL injection syringe was titrated into the Orf2*, Orf2*T or Dbv27 (0.1 mM) protein solution, which was placed in the sample cell of a 200 μL volume. Each titration consisted of 16 injections of a 2 μL4 s^−1 duration in an interval of 150 seconds. Data analysis was performed by software.

[22] = A. baumannii ATCC 19606, Table 3, first figure of cell
[23] = A. baumannii ATCC 19606, Table 3, second figure of cell

Sequence of Dbv27 (Q7WZ64 entry or part of it): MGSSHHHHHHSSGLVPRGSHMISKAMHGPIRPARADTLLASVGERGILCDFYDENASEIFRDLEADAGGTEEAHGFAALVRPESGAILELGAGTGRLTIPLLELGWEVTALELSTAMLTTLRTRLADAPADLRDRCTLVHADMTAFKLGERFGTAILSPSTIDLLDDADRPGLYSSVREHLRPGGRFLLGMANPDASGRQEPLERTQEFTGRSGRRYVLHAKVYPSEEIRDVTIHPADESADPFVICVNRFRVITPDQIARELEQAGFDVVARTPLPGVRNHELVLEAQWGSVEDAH

For colistin sulfate [reference compound], the “MIC on AB” value [1] was 1.98 µg/mL, the MIC [1, 22] was 1.56 µM and the MIC [1, 23] was 1.98 µg/mL. The “cell membrane/cell wall morphology by TEM” value [2] was “intactness of cell membrane/cell wall was severely damaged”.

“teicoplanin [Compound 1, reference compound]” was tested, and the MIC [3] was greater than 128 µg/mL, the MIC [4] was 0.5 µg/mL and the MIC [5] was 1 µg/mL. For the same compound, the MIC [1, 22] was 100 µM, the MIC [1, 23] was 187.97 µg/mL and the “bacterial load reduced by” value [6] was 1.5 log CFUmL^−1. The bacterial load ([7]; 30 mgkg^−1) was “about 4 log CFUmL^−1”, the “cell wall morphology by TEM” value [8] was “loose” and the “cytotoxicity to HEK293T cells” value [9] was “did not exhibit any observable toxicity”. For the same compound, the MIC [10] was 4 µg/mL, the MIC [11] was 0.5 µg/mL and the MIC [12] was 0.25 µg/mL. For the same compound, the MIC [13] was 4 µg/mL, the MIC ([14]; MRSA ATCC 700787 VRSA) was 8 µg/mL and the MIC [15] was 0.25 µg/mL. For the same compound, the MIC [16] was 0.25 µg/mL, the MIC [17] was 0.5 µg/mL and the MIC [18] was 0.125 µg/mL.

`CN(C)[C@H]1C(=O)N[C@@H]2Cc3ccc(c(Cl)c3)Oc3cc4cc(c3O)Oc3ccc(cc3Cl)[C@@H](O[C@@H]3O[C@H](CO)[C@@H](O)[C@H](O)[C@H]3NC(=O)CCCCCCCNC(=N)N)[C@@H]3NC(=O)[C@H](NC(=O)[C@@H]4NC(=O)[C@@H](NC2=O)c2cc(O)cc(c2)Oc2cc1ccc2O)c1ccc(O)c(c1)-c1c(O)cc(O)cc1[C@@H](C(=O)O)NC3=O` [Compound 24, r1,Me2-r6,C8-guanidino-Tei] was tested, and the MIC [3] was greater than 16 µg/mL, the MIC [4] was 4 µg/mL (≈ 2.55 µM) and the MIC [5] was 8 µg/mL (≈ 5.09 µM). The “MIC on AB” value [1] was 39.24 µg/mL (≈ 25 µM), the MIC [1, 22] was 25 µM and the MIC [1, 23] was 39.24 µg/mL. The MIC ([1]; AB ATCC 19606, Table 4) was 39.24 µg/mL, the “bacterial load reduced by” value ([7]; 24 and kanamycin 30, amikacin 15 mgkg^−1) was 1 log CFUmL^−1 and the MBC [19] was 39.24 µg/mL (≈ 25 µM). It also gave an MBC/MIC [19] of 1, an MBC [20] of 0.031 µg/mL (≈ 0.0197 µM) and an MBC/MIC [20] of 2. The “cytotoxicity to HEK293T cells” value [9] was “did not exhibit any observable toxicity”, the MIC [10] was 0.031 µg/mL (≈ 0.0197 µM) and the MIC ([14]; MRSA ATCC 700787, Table 4) was 0.016 µg/mL (≈ 0.0102 µM). For the same compound, the MIC ([14]; MRSA ATCC 700787 VRSA) was 0.016 µg/mL (≈ 0.0102 µM), the MIC [16] was 0.5 µg/mL (≈ 0.318 µM) and the MIC [18] was 0.5 µg/mL (≈ 0.318 µM). The “cell membrane/cell wall morphology by TEM” value [2] was “intactness of cell membrane/cell wall was severely damaged”.

With `N[C@H]1[C@H](O[C@@H]2c3ccc(c(Cl)c3)Oc3cc4cc(c3O)Oc3ccc(cc3Cl)C[C@H]3NC(=O)[C@H](N)c5ccc(O)c(c5)Oc5cc(O)cc(c5)[C@H](NC3=O)C(=O)N[C@H]4C(=O)N[C@H]3C(=O)N[C@@H]2C(=O)N[C@H](C(=O)O)c2cc(O)cc(O)c2-c2cc3ccc2O)O[C@H](CO)[C@@H](O)[C@@H]1O` [Compound 12, r6,Glm pseudoaglycone] the Kd [21] was 5 µM.

From patent US11739122B2, “Glycopeptide antibiotic compounds, methods for producing the same, and uses thereof” (Academia Sinica, priority 2019, dated 2023)
